Reference: PubChem BioAssay AID2060599 (Molecular Pharmacology Branch, DTP, NCI, 2025)

Test system: 817829-284-R-J1-PDC complex spheroids, viability
Experiment: Anticancer human tumor 817829-284-R-J1-PDC patient-derived colon adenocarcinoma cell line growth inhibition [CLK]
Conditions: second compound 0.1 µM; first compound 1 µM; hits give low values
In short: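 Multi-cell-type spheroids combined patient-derived tumor cells with HUVEC endothelial cells and human mesenchymal stem cells. Paired agents were dosed in half-log steps down from about clinical Cmax, or from 10 microM where Cmax was unknown.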
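Also: spheroids exposed to the agents for seven days before readout.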

Structure (SMILES) | viability, T/C [%]
CCCS(=O)(=O)Nc1ccc(F)c(C(=O)c2c[nH]c3ncc(-c4ccc(Cl)cc4)cc23)c1F + CNC(=O)c1ccc(Nc2nc(OC3CCCC3)c3c(-c4ccc5nc(C)oc5c4)c[nH]c3n2)c(OC)c1 | 20.5
COC1C=CCC(C)C(C)S(=O)(=O)NC(=O)c2ccc3c(c2)N(CC2CCC21)CC1(CCCc2cc(Cl)ccc21)CO3 (configuration not stated) + CNC(=O)c1ccc(Nc2nc(OC3CCCC3)c3c(-c4ccc5nc(C)oc5c4)c[nH]c3n2)c(OC)c1 | 16.1

Same assay, conditions: second compound 0.1 µM; first compound 3.16 µM; hits give low values

Structure (SMILES) | viability, T/C [%]
C#Cc1c(F)ccc2cc(O)cc(-c3ncc4c(N5CC6CCC(C5)N6)nc(OCC56CCCN5CC(F)C6)nc4c3F)c12 (configuration not stated) + CNC(=O)c1ccc(Nc2nc(OC3CCCC3)c3c(-c4ccc5nc(C)oc5c4)c[nH]c3n2)c(OC)c1 | 26
C=C(F)C(=O)N1CCN(c2nc(OCC3CCCN3C)nc3c2CCN(c2cccc4cccc(Cl)c24)C3)CC1CC#N (configuration not stated) + CNC(=O)c1ccc(Nc2nc(OC3CCCC3)c3c(-c4ccc5nc(C)oc5c4)c[nH]c3n2)c(OC)c1 | 16.1
C=CC(=O)N1CCN(c2nc(=O)n(-c3c(C)ccnc3C(C)C)c3nc(-c4c(O)cccc4F)c(F)cc23)C(C)C1 (configuration not stated) + CNC(=O)c1ccc(Nc2nc(OC3CCCC3)c3c(-c4ccc5nc(C)oc5c4)c[nH]c3n2)c(OC)c1 | 22.2
CCCS(=O)(=O)Nc1ccc(F)c(C(=O)c2c[nH]c3ncc(-c4ccc(Cl)cc4)cc23)c1F + CNC(=O)c1ccc(Nc2nc(OC3CCCC3)c3c(-c4ccc5nc(C)oc5c4)c[nH]c3n2)c(OC)c1 | 21.1
COC1C=CCC(C)C(C)S(=O)(=O)NC(=O)c2ccc3c(c2)N(CC2CCC21)CC1(CCCc2cc(Cl)ccc21)CO3 (configuration not stated) + CNC(=O)c1ccc(Nc2nc(OC3CCCC3)c3c(-c4ccc5nc(C)oc5c4)c[nH]c3n2)c(OC)c1 | 7.61

Same assay, conditions: second compound 0.1 µM; first compound 10 µM; hits give low values

Structure (SMILES) | viability, T/C [%]
C#Cc1c(F)ccc2cc(O)cc(-c3ncc4c(N5CC6CCC(C5)N6)nc(OCC56CCCN5CC(F)C6)nc4c3F)c12 (configuration not stated) + CNC(=O)c1ccc(Nc2nc(OC3CCCC3)c3c(-c4ccc5nc(C)oc5c4)c[nH]c3n2)c(OC)c1 | 30.8
C=C(F)C(=O)N1CCN(c2nc(OCC3CCCN3C)nc3c2CCN(c2cccc4cccc(Cl)c24)C3)CC1CC#N (configuration not stated) + CNC(=O)c1ccc(Nc2nc(OC3CCCC3)c3c(-c4ccc5nc(C)oc5c4)c[nH]c3n2)c(OC)c1 | 0.15
C=CC(=O)N1CCN(c2nc(=O)n(-c3c(C)ccnc3C(C)C)c3nc(-c4c(O)cccc4F)c(F)cc23)C(C)C1 (configuration not stated) + CNC(=O)c1ccc(Nc2nc(OC3CCCC3)c3c(-c4ccc5nc(C)oc5c4)c[nH]c3n2)c(OC)c1 | 22.9
CCCS(=O)(=O)Nc1ccc(F)c(C(=O)c2c[nH]c3ncc(-c4ccc(Cl)cc4)cc23)c1F + CNC(=O)c1ccc(Nc2nc(OC3CCCC3)c3c(-c4ccc5nc(C)oc5c4)c[nH]c3n2)c(OC)c1 | 16.3
COC1C=CCC(C)C(C)S(=O)(=O)NC(=O)c2ccc3c(c2)N(CC2CCC21)CC1(CCCc2cc(Cl)ccc21)CO3 (configuration not stated) + CNC(=O)c1ccc(Nc2nc(OC3CCCC3)c3c(-c4ccc5nc(C)oc5c4)c[nH]c3n2)c(OC)c1 | 4.67

Same assay, conditions: second compound 0.316 µM; first compound 0.0316 µM; hits give low values

Structure (SMILES) | viability, T/C [%]
C#Cc1c(F)ccc2cc(O)cc(-c3ncc4c(N5CC6CCC(C5)N6)nc(OCC56CCCN5CC(F)C6)nc4c3F)c12 (configuration not stated) + CNC(=O)c1ccc(Nc2nc(OC3CCCC3)c3c(-c4ccc5nc(C)oc5c4)c[nH]c3n2)c(OC)c1 | 33.1
C=C(F)C(=O)N1CCN(c2nc(OCC3CCCN3C)nc3c2CCN(c2cccc4cccc(Cl)c24)C3)CC1CC#N (configuration not stated) + CNC(=O)c1ccc(Nc2nc(OC3CCCC3)c3c(-c4ccc5nc(C)oc5c4)c[nH]c3n2)c(OC)c1 | 25.3
C=CC(=O)N1CCN(c2nc(=O)n(-c3c(C)ccnc3C(C)C)c3nc(-c4c(O)cccc4F)c(F)cc23)C(C)C1 (configuration not stated) + CNC(=O)c1ccc(Nc2nc(OC3CCCC3)c3c(-c4ccc5nc(C)oc5c4)c[nH]c3n2)c(OC)c1 | 28.8
CCCS(=O)(=O)Nc1ccc(F)c(C(=O)c2c[nH]c3ncc(-c4ccc(Cl)cc4)cc23)c1F + CNC(=O)c1ccc(Nc2nc(OC3CCCC3)c3c(-c4ccc5nc(C)oc5c4)c[nH]c3n2)c(OC)c1 | 38
COC1C=CCC(C)C(C)S(=O)(=O)NC(=O)c2ccc3c(c2)N(CC2CCC21)CC1(CCCc2cc(Cl)ccc21)CO3 (configuration not stated) + CNC(=O)c1ccc(Nc2nc(OC3CCCC3)c3c(-c4ccc5nc(C)oc5c4)c[nH]c3n2)c(OC)c1 | 21.2

Same assay, conditions: second compound 0.316 µM; first compound 0.1 µM; hits give low values

Structure (SMILES) | viability, T/C [%]
C#Cc1c(F)ccc2cc(O)cc(-c3ncc4c(N5CC6CCC(C5)N6)nc(OCC56CCCN5CC(F)C6)nc4c3F)c12 (configuration not stated) + CNC(=O)c1ccc(Nc2nc(OC3CCCC3)c3c(-c4ccc5nc(C)oc5c4)c[nH]c3n2)c(OC)c1 | 20.1
C=C(F)C(=O)N1CCN(c2nc(OCC3CCCN3C)nc3c2CCN(c2cccc4cccc(Cl)c24)C3)CC1CC#N (configuration not stated) + CNC(=O)c1ccc(Nc2nc(OC3CCCC3)c3c(-c4ccc5nc(C)oc5c4)c[nH]c3n2)c(OC)c1 | 25.3
C=CC(=O)N1CCN(c2nc(=O)n(-c3c(C)ccnc3C(C)C)c3nc(-c4c(O)cccc4F)c(F)cc23)C(C)C1 (configuration not stated) + CNC(=O)c1ccc(Nc2nc(OC3CCCC3)c3c(-c4ccc5nc(C)oc5c4)c[nH]c3n2)c(OC)c1 | 35.2
CCCS(=O)(=O)Nc1ccc(F)c(C(=O)c2c[nH]c3ncc(-c4ccc(Cl)cc4)cc23)c1F + CNC(=O)c1ccc(Nc2nc(OC3CCCC3)c3c(-c4ccc5nc(C)oc5c4)c[nH]c3n2)c(OC)c1 | 22.6
COC1C=CCC(C)C(C)S(=O)(=O)NC(=O)c2ccc3c(c2)N(CC2CCC21)CC1(CCCc2cc(Cl)ccc21)CO3 (configuration not stated) + CNC(=O)c1ccc(Nc2nc(OC3CCCC3)c3c(-c4ccc5nc(C)oc5c4)c[nH]c3n2)c(OC)c1 | 31.2

Same assay, conditions: second compound 0.316 µM; first compound 0.316 µM; hits give low values

Structure (SMILES) | viability, T/C [%]
C#Cc1c(F)ccc2cc(O)cc(-c3ncc4c(N5CC6CCC(C5)N6)nc(OCC56CCCN5CC(F)C6)nc4c3F)c12 (configuration not stated) + CNC(=O)c1ccc(Nc2nc(OC3CCCC3)c3c(-c4ccc5nc(C)oc5c4)c[nH]c3n2)c(OC)c1 | 23.5
C=C(F)C(=O)N1CCN(c2nc(OCC3CCCN3C)nc3c2CCN(c2cccc4cccc(Cl)c24)C3)CC1CC#N (configuration not stated) + CNC(=O)c1ccc(Nc2nc(OC3CCCC3)c3c(-c4ccc5nc(C)oc5c4)c[nH]c3n2)c(OC)c1 | 22.7
C=CC(=O)N1CCN(c2nc(=O)n(-c3c(C)ccnc3C(C)C)c3nc(-c4c(O)cccc4F)c(F)cc23)C(C)C1 (configuration not stated) + CNC(=O)c1ccc(Nc2nc(OC3CCCC3)c3c(-c4ccc5nc(C)oc5c4)c[nH]c3n2)c(OC)c1 | 30.8
CCCS(=O)(=O)Nc1ccc(F)c(C(=O)c2c[nH]c3ncc(-c4ccc(Cl)cc4)cc23)c1F + CNC(=O)c1ccc(Nc2nc(OC3CCCC3)c3c(-c4ccc5nc(C)oc5c4)c[nH]c3n2)c(OC)c1 | 18
COC1C=CCC(C)C(C)S(=O)(=O)NC(=O)c2ccc3c(c2)N(CC2CCC21)CC1(CCCc2cc(Cl)ccc21)CO3 (configuration not stated) + CNC(=O)c1ccc(Nc2nc(OC3CCCC3)c3c(-c4ccc5nc(C)oc5c4)c[nH]c3n2)c(OC)c1 | 22.6
